What was measured:
[1] = system: human breast cancer xenographs; assay: MRI of magnetic field induced localization of PMNPs in breast cancer xenograft mice; format: in vivo, mouse
Protocol: FIGS. 3(A-D). […] By applying a magnet field for 30 minutes at hind end (blue arrows), the enhanced image of hind-end tumor is observed (3B). The enhanced image of the tumor persists for at least several hours. […] The PMNPs are concentrated at site of a lower abdominal mammary tumor (FIG. 3C) using an external magnetic field placed over the tumor for 30 minutes. […] Imaging was performed over several hours without taking the mouse out of MRI machine thereby maintaining all of the imaging parameters.
FIGS. 4(A-B). Compares the MRI contrast data between […] and gadolinium oxide-based PMNPs.
In FIG. 3 are presented results on magnetic immobilization of gadolinium-based PMNPs in a mouse with numerous human breast cancer xenographs. There is no image enhancement for any of the multiple tumors located in different parts of the mouse including one at hind end (green-arrow at bottom of the picture marked tumor). The mouse was then removed and then subjected to thirty minutes of having a magnetic field placed over the tumor demarked by the green arrow. […] The intensity of MRI signal is very similar at both tumor and bladder. This is very different than observed in case of […] where there is a transient image of the bladder and no site specific localization of the contrast agent in any one of the tumors. […]

[2] = Histopathological analysis of multiple tissues (toxicity); format: in vivo, mice; settings: same dose (1 mg/kg BW)
Protocol: FIGS. 11(A-B). Systemic effect of the treatment. (A) Representative H&E staining of tissue sections from ADM-PMNP injected mice (1 mg/kg BW)(A). (B) inflammation and hyperplasia were found in colon from mice treated with free ADM (B-left) but not in mice injected with the same dose of ADM-PMNP (B-right).

[3] = system: human breast cancer line, MDA-MB-436; assay: Tumor necrosis in xenografted human breast cancer; format: in vivo, mice; settings: 1.0 mg/kg
[4] = system: MoB-1833 mammary xenografted tumor; assay: ADM-PMNP plus magnetic field on xenografted human breast cancer, bioluminescence; format: in vivo, mouse; settings: comparable amount of free drug
Protocol: FIG. 8 Anti-tumor effect of IV infused Adriamycin loaded PMNP (ADM-PMNP) plus magnetic field treatment on xenografted human breast cancer. Human breast cancer was s.c. xenografted in a female nude mouse. The mouse was injected with 1 mg/kg ADM-PMNP and the tumor was treated with magnetic field for 30 minutes following each injection The mouse was imaged before and after the treatment, the luminescent signals were quantitatively analyzed for change of tumor size. At the end of the treatment, there was a >80% decrease of luminescent signaling in the tumor. The signal recovered partially 3 days after the treatment was ended.
Signal intensity in treated tumor was similar to that in bladder, a major route of PMNP elimination. Next, to assess drug delivery and anti-tumor efficacy, MoB-1833 mammary xenografted tumor-bearing mice were infused with ADM-coated PMNP (ADM-PMNP). ADM use in chemotherapy is limited due to systemic toxicity and it is therefore an excellent model drug for evaluation of the potentially utility of our PMNP platform. […] This ADM dose is 5-20 times lower than doses of free ADM commonly used for in animal studies and similar to doses used clinically. The 4-day treatment achieved a 9-fold reduction in tumor mass (FIG. 8). Tumor rebound upon drug termination confirmed specificity of the drug effect. […] The necrosis was confirmed histologically (FIG. 9Bd-f). […]

[5] = system: U87 human glioblastoma cells; assay: Cell viability assay, Presto Blue, 48 h; format: cell-based
Protocol: FIG. 22 Cytotoxicity of naked curcumin, curcumin conjugated PMNPs and Sol-Gel Nps and blanks (without curcumin) performed on U87 human glioblastoma cells after 48 hours of incubation. Note that 1 μM equivalent curcumin concentration corresponds to 16.7 μg/mL of nanoparticles. […] The data represents the mean±SE, n=3 to 18.
Cells were plated in 24-well trays and allowed to become confluent then incubated with naked curcumin or different curcumin NP concentrations for 48 h. Cell viability was quantified using Presto Blue (Invitrogen) an assay that contains a cell permeable resazurin-based solution that is modified by the reducing environment of the viable cell becoming highly fluorescent. Using a plate reader, cell viability was quantified after 0.5-1 hours of incubation with Presto Blue. All measurements were always accompanied by control wells and by calibration wells to account for background fluorescence using the same culture media and the same NP concentrations without the cells.

[6] = Radiation protection by localized melanin; format: in vivo, rat; settings: earlier studies
Text: The same protocol used for curcumin also works for melanin resulting in melanin loaded OA-PMNPs. These particles have potential use as radioprotectants. The melanin loaded OA-PMNPs would be infused into the patient and then magnetically localized in healthy tissue surrounding the diseased tissue targeted for radiation treatment. […] Additionally melanin loaded PMNP can be used as targeted contrast agent for photo-acoustic based imaging.

CNC[C@H](O)[C@@H](O)[C@H](O)[C@H](O)CO.CNC[C@H](O)[C@@H](O)[C@H](O)[C@H](O)CO.O=C([O-])CN(CCN(CC(=O)[O-])CC(=O)O)CCN(CC(=O)[O-])CC(=O)O.[Gd+3]
persistence of MRI contrast ([1]; FIG. 4): short lived | distribution of contrast agent by MRI ([1]; within a short time, no magnetic field): concentrates in the bladder

COc1cccc2c1C(=O)c1c(O)c3c(c(O)c1C2=O)C[C@@](O)(C(=O)CO)C[C@@H]3O[C@H]1C[C@H](N)[C@H](O)[C@H](C)O1 [Adriamycin, doxorubicin]
colon histology [2]: colonic inflammation and hyperplasia | tumor necrosis [3]: smaller necrotic lesions | anti-tumor effect [4]: relatively ineffective

COc1cc(/C=C/C(=O)CC(=O)/C=C/c2ccc(O)c(OC)c2)ccc1O [Curcumin]
equivalent Curcumin concentration that decreases cell viability by 20% [5]: 5 µM

melanin
radiation damage in irradiated legs [6]: prevent radiation damage
